Data as given in patent publication US10099993B2, “Metabotropic glutamate receptor positive allosteric modulators (PAMS) and uses thereof” (Sanford-Burnham Medical Research Institute, priority 2014, dated 2018).

Legend:
mGlu3 = mGlu3 (Rattus norvegicus (Rat), UniProt P31422); experiment: mGlu3 GIRK thallium flux assay; conditions: for EC50: read-out: mGlu3 PAM EC50, test compound, then EC20 glutamate […] later in the presence of thallium; for Emax: read-out: mGlu3 PAM Max;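 as to all read-outs here: kinetic fluorescence slope read shortly after thallium plus agonist addition, scaled between vehicle and maximal agonist control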
mGlu2 = mGlu2 (Rattus norvegicus (Rat), UniProt P31421); experiment: mGlu2 GIRK thallium flux assay; conditions: for EC50: read-out: mGlu2 PAM EC50, test compound, then EC20 glutamate […] later in the presence of thallium; for EC50 / mGlu2 PAM Max: PAM mode, mean ± SEM, at least three experiments; for Emax: read-out: mGlu2 PAM Max; for mGlu2 PAM Max: % Glutamate Max;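 as to all read-outs here: Cell-based assay, rate of fluorescence rise right after thallium plus agonist addition read on a kinetic imaging plate reader, normalized to vehicle and maximal agonist control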
Chain of mGlu2 (P31421 19-872): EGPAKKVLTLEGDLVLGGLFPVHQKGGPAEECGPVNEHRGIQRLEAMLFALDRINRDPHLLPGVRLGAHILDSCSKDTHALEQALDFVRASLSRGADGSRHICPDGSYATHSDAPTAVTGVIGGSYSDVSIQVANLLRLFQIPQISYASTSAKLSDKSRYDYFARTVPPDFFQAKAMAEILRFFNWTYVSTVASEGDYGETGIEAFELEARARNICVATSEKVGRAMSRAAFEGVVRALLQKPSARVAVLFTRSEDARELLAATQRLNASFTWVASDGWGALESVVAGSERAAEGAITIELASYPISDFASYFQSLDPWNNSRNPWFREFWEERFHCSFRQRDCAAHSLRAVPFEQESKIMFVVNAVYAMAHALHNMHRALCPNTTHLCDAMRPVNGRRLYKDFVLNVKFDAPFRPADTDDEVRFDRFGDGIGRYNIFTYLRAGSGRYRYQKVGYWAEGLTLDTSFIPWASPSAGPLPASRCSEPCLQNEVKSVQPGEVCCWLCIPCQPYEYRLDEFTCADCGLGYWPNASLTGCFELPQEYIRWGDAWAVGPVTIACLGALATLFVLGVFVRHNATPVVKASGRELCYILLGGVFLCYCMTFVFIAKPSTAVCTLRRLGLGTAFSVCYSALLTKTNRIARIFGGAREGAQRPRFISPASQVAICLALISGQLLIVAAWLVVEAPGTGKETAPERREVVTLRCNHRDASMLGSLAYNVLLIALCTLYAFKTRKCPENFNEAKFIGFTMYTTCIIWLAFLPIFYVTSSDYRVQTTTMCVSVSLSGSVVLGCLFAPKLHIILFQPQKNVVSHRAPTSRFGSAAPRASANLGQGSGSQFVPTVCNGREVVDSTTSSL

Chain of mGlu3 (P31422 23-879): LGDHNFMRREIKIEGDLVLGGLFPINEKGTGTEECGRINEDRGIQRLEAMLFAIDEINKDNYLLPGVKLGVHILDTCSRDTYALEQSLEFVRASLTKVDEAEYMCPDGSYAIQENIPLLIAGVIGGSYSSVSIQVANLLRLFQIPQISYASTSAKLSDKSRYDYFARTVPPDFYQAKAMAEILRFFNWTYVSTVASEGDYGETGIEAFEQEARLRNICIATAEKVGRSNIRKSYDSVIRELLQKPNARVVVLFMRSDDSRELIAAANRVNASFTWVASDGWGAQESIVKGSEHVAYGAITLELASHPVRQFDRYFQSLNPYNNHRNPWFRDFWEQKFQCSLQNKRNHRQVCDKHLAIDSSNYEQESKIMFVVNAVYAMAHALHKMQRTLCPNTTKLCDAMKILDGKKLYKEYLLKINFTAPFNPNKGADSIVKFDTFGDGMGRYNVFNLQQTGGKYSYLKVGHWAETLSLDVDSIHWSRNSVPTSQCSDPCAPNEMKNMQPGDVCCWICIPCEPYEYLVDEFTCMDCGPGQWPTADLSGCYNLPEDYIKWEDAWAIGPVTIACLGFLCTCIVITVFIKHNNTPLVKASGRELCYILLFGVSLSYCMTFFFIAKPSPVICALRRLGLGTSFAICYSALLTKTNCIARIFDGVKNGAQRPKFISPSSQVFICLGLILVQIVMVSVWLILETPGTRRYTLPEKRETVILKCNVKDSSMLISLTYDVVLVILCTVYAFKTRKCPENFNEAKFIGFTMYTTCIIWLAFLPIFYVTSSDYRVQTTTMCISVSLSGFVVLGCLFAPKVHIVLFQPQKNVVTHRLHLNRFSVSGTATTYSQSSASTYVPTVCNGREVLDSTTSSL

| SMILES | EC50 (mGlu3; PAM mode, mean ± SEM) | EC50 (mGlu2) | Emax (mGlu3) | Emax (mGlu2) | mGlu2 PAM Max (mGlu2) | mGlu3 PAM Max (mGlu3; PAM mode, % Glutamate Max, mean ± SEM) |
| --- | --- | --- | --- | --- | --- | --- |
| COC(=O)c1ccc(OCCCCOc2ccc(C(=O)CC3CCCC3)c(C)c2C)cc1 [Compound 15, Methyl 4-(4-(4-(2-cyclopentylacetyl)-2,3-dimethylphenoxy)butoxy)benzoate] | > 30000 nM | > 30000 nM | – | – | – | – |
| COc1ccc(B2OC(C)(C)C(C)(C)O2)cc1OCCCCOc1ccc(C(=O)CC(C)(C)C)c(O)c1C [compound 87, 1-(2-Hydroxy-4-(4-(2-methoxy-5-(4,4,5,5-tetramethyl-1,3,2-dioxaborolan-2-yl)phenoxy)butoxy)-3-methylphenyl)-3,3-dimethylbutan-1-one] | – | – | 24.9 ± 9.6% | 49.5 ± 3.5% | – | – |
| Cc1c(OCc2cccc(-c3ccc(Cl)c(C(=O)O)c3)c2)ccc(C(=O)CC(C)C)c1C [compound 170] | > 30000 nM | 815 ± 50 nM | – | – | 70.2 ± 2.9% | – |
| Cc1c(OCc2cccc(-c3ccc(C(=O)O)c(Cl)c3)c2)ccc(C(=O)CC(C)(C)C)c1O [compound 141, 3-Chloro-3′-((4-(3,3-dimethylbutanoyl)-3-hydroxy-2-methylphenoxy)methyl)-[1,1′-biphenyl]-4-carboxylic acid] | 656 ± 265 nM | 391 ± 103 nM | 54.9 ± 9.7% | 67 ± 6.4% | – | – |
| CCCC(=O)c1ccc(OCc2cccc(-c3cccc(C(=O)O)c3)c2)c(C)c1O [compound 130, 3′-((4-Butyryl-3-hydroxy-2-methylphenoxy)methyl)-[1,1′-biphenyl]-3-carboxylic acid] | 1680 ± 753 nM | 142 ± 29 nM | 81 ± 14.8% | 92.9 ± 10.7% | – | – |
| COc1ccc(C(=O)O)cc1OCCCCOc1ccc(C(=O)CCC(C)(C)C)c(O)c1C [compound 96, 3-(4-(4-(4,4-Dimethylpentanoyl)-3-hydroxy-2-methylphenoxy)butoxy)-4-methoxybenzoic acid] | – | – | 95.3 ± 5% | 88.6 ± 0.9% | – | – |
| Cc1c(OCCCCOCc2cccc(-c3cccc(C(=O)O)c3)c2)ccc(C(=O)CC(C)(C)C)c1O [Compound 187, 3′-((4-(4-(3,3-Dimethylbutanoyl)-3-hydroxy-2-methylphenoxy)butoxy)methyl)-[1,1′-biphenyl]-3-carboxylic acid] | 3070 ± 632 nM | 1580 ± 297 nM | 74.1 ± 7.8% | 93.4 ± 3.4% | – | – |
| Cc1c(OCCCCOc2ccc(C#N)cc2)ccc(C(=O)CC2CCCC2)c1C [compound 76] | > 30000 nM | > 30000 nM | – | – | – | – |
| COC(=O)CCc1cc(OCCCCOc2ccc(C(=O)CC3CCCC3)c(O)c2C)ccc1O [compound 86] | > 30000 nM | > 10000 nM | – | – | – | – |
| Cc1c(OCCCCSc2ccccn2)ccc(C(=O)CC(C)C)c1O [Compound 184] | > 30000 nM | > 10000 nM | – | – | – | – |
| COC(=O)CCc1cc(OCCCCOc2ccc(C(=O)CC(C)C)c(O)c2C)ccc1O [compound 85] | > 30000 nM | > 10000 nM | – | – | – | – |
| COc1ccc(-c2nnn[nH]2)cc1OCCCCOc1ccc(C(=O)CC(C)(C)C)c(O)c1C [compound 92, 1-(2-Hydroxy-4-(4-(2-methoxy-5-(1H-tetrazol-5-yl)phenoxy)butoxy)-3-methylphenyl)-3,3-dimethylbutan-1-one] | – | – | 96.7 ± 4% | 91.2 ± 1.1% | – | – |
| Cc1c(OCCCCSc2ccncc2)ccc(C(=O)CC2CCCC2)c1C [Compound 188] | > 30000 nM | > 30000 nM | – | – | – | – |
| Cc1c(OCc2cccc(COc3ccc(C(=O)O)cc3)c2)ccc(C(=O)CC(C)C)c1O [compound 125] | > 30000 nM | 238 ± 51 nM | – | – | 82.7 ± 7.2% | 13.9 ± 3.1% |
| COc1ccc(C(=O)O)cc1-c1cccc(COc2ccc(C(=O)CC(C)(C)C)c(O)c2C)c1 [compound 134, 3′-((4-(3,3-Dimethylbutanoyl)-3-hydroxy-2-methylphenoxy)methyl)-6-methoxy-[1,1′-biphenyl]-3-carboxylic acid] | 324 ± 94 nM | 118 ± 2 nM | 76.4 ± 5.4% | 89.6 ± 2.9% | – | – |
| Cc1c(OCc2cccc(-c3ccc(C(=O)O)cc3)c2)ccc(C(=O)CC(C)(C)C)c1O [compound 132, 3′-((4-(3,3-Dimethylbutanoyl)-3-hydroxy-2-methylphenoxy)methyl)-[1,1′-biphenyl]-4-carboxylic acid] | 1640 ± 487 nM | 561 ± 63 nM | 57.5 ± 20.9% | 90.5 ± 13.8% | – | – |
| Cc1c(OCc2cccc(-c3cc(C(=O)O)ccc3F)c2)ccc(C(=O)CC(C)(C)C)c1O [compound 139, 3′-((4-(3,3-Dimethylbutanoyl)-3-hydroxy-2-methylphenoxy)methyl)-6-fluoro-[1,1′-biphenyl]-3-carboxylic acid] | 1100 ± 330 nM | 436 ± 84 nM | 85.6 ± 5.5% | 88.2 ± 5.1% | – | – |
| Cc1c(OCc2cccc(-c3ccccc3C(=O)O)c2)ccc(C(=O)CC(C)(C)C)c1O [compound 138, 3′-((4-(3,3-Dimethylbutanoyl)-3-hydroxy-2-methylphenoxy)methyl)-[1,1′-biphenyl]-2-carboxylic acid] | > 10000 nM | 643 ± 137 nM | 23.5 ± 4.6% | 42.1 ± 7.1% | – | – |

| SMILES | EC50 (mGlu3; PAM mode, mean ± SEM) | EC50 (mGlu2) | Emax (mGlu3) | Emax (mGlu2) | mGlu2 PAM Max (mGlu2) | mGlu3 PAM Max (mGlu3; PAM mode, % Glutamate Max, mean ± SEM) |
| --- | --- | --- | --- | --- | --- | --- |
| Cc1c(OCc2cccc(-c3cccc(C(=O)O)c3)c2)ccc(C(=O)CC(C)C)c1O [compound 137, 3′-((3-Hydroxy-2-methyl-4-(3-methylbutanoyl)phenoxy)methyl)-[1,1′-biphenyl]-3-carboxylic acid] | 642 ± 151 nM | 181 ± 28 nM | 76.8 ± 8% | 85.8 ± 3.7% | – | – |
| Cc1c(OCCCCOc2ccc(F)c(C(=O)O)c2)ccc(C(=O)CC(C)C)c1C [Compound 34, 5-(4-(2,3-Dimethyl-4-(3-methylbutanoyl)phenoxy)butoxy)-2-fluorobenzoic acid] | > 30000 nM | > 30000 nM | – | – | – | – |
| Cc1c(OCc2cccc(-c3cncc(C(=O)O)c3)c2)ccc(C(=O)CC(C)(C)C)c1O [Compound 179, 5-(3-((4-(3,3-Dimethylbutanoyl)-3-hydroxy-2-methylphenoxy)methyl)phenyl)nicotinic acid] | 1010 ± 20 nM | 848 ± 9 nM | 102 ± 3.5% | 100 ± 2.9% | – | – |
| COc1ccc(C(=O)NS(=O)(=O)c2ccccc2)cc1OCCCCOc1ccc(C(=O)CC(C)(C)C)c(O)c1C [compound 113, 3-(4-(4-(3,3-Dimethylbutanoyl)-3-hydroxy-2-methylphenoxy)butoxy)-4-methoxy-N-(phenylsulfonyl)benzamide] | 1080 ± 21 nM | 872 ± 4 nM | 109 ± 3.5% | 102 ± 2.9% | – | – |
| Cc1c(OCc2cncc(-c3cccc(C(=O)O)c3)c2)ccc(C(=O)CC(C)(C)C)c1O [compound 150, 3-(5-((4-(3,3-Dimethylbutanoyl)-3-hydroxy-2-methylphenoxy)methyl)pyridin-3-yl)benzoic acid] | 345 ± 9 nM | 345 ± 2 nM | 107 ± 6.3% | 107 ± 2.6% | – | – |
| Cc1c(OCCCCOc2ccccn2)ccc(C(=O)CC(C)C)c1O [Compound 185] | > 30000 nM | 2790 ± 102 nM | 22.4 ± 4.3% | 66.3 ± 0.6% | – | – |
| Cc1c(OCCCCOc2ccccn2)ccc(C(=O)CC2CCCC2)c1O [Compound 186] | > 30000 nM | > 10000 nM | – | – | – | – |
| COc1ccc(C(=O)N2CCOCC2)cc1OCCCCOc1ccc(C(=O)CC(C)(C)C)c(O)c1C [compound 101, 1-(2-Hydroxy-4-(4-(2-methoxy-5-(morpholine-4-carbonyl)phenoxy)butoxy)-3-methylphenyl)-3,3-dimethylbutan-1-one] | 741 ± 6 nM | 875 ± 3 nM | 132 ± 5% | 113 ± 1.2% | – | – |
| Cc1c(OCc2cccc(-c3cnccc3C(=O)O)c2)ccc(C(=O)CC(C)(C)C)c1O [Compound 180, 3-(3-((4-(3,3-Dimethylbutanoyl)-3-hydroxy-2-methylphenoxy)methyl)phenyl)isonicotinic acid] | > 30000 nM | 1460 ± 20 nM | 30.6 ± 9.2% | 88.4 ± 1.5% | – | – |
| Cc1c(OCc2cccc(COc3ccc(C(=O)O)cc3)c2)ccc(C(=O)CC2CCCC2)c1O [compound 126] | > 30000 nM | > 10000 nM | – | – | – | – |
| CCN(CC)C(=O)c1ccc(OC)c(OCCCCOc2ccc(C(=O)CC(C)(C)C)c(O)c2C)c1 [compound 103, 3-(4-(4-(3,3-Dimethylbutanoyl)-3-hydroxy-2-methylphenoxy)butoxy)-N,N-diethyl-4-methoxybenzamide] | 497 ± 6 nM | 608 ± 10 nM | 111 ± 3.4% | 96.4 ± 2.1% | – | – |
| Cc1c(OCc2cccc(-c3cccc(S(=O)(=O)O)c3)c2)ccc(C(=O)CC(C)(C)C)c1O [compound 164, 3′-((4-(3,3-Dimethylbutanoyl)-3-hydroxy-2-methylphenoxy)methyl)-[1,1′-biphenyl]-3-sulfonic acid] | – | – | 103 ± 1.9% | 101 ± 2.8% | – | – |
| COC(=O)c1ccc(OCc2cccc(COc3ccc(C(=O)CC(C)C)c(O)c3C)c2)cc1 [compound 119] | > 30000 nM | > 30000 nM | – | – | – | – |
| Cc1c(OCc2cccc(-c3cccc(-c4noc(=O)[nH]4)c3)c2)ccc(C(=O)CC(C)(C)C)c1O [compound 157, 3-(3′-((4-(3,3-Dimethylbutanoyl)-3-hydroxy-2-methylphenoxy)methyl)-[1,1′-biphenyl]-3-yl)-1,2,4-oxadiazol-5(4H)-one] | – | – | 105 ± 2.8% | 111 ± 6.6% | – | – |
| Cc1c(OCc2cccc(COc3ccc(C(=O)O)cc3)c2)ccc(C(=O)CC(C)C)c1C [compound 123] | > 30000 nM | > 30000 nM | – | – | – | – |
| Cc1c(OCc2cccc(COc3ccc(C(=O)O)cc3)c2)ccc(C(=O)CC2CCCC2)c1C [compound 124] | > 30000 nM | > 30000 nM | – | – | – | – |
| Cc1cc(-c2cccc(COc3ccc(C(=O)CC(C)(C)C)c(O)c3C)c2)ccc1C(=O)O [compound 143, 3′-((4-(3,3-Dimethylbutanoyl)-3-hydroxy-2-methylphenoxy)methyl)-3-methyl-[1,1′-biphenyl]-4-carboxylic acid] | 3060 ± 624 nM | 571 ± 138 nM | 78.3 ± 21.1% | 87 ± 11.7% | – | – |
